Tests used:
SGLT1 = target: T1, SGLT1 (Homo sapiens, UniProt P13866); assay: Inhibition of [14C]AMG uptake in CHO-SGLT1 cells; assay type: cell-based; conditions: 10 μM [14C]AMG uptake, 2 h, CHO-SGLT1 minus mock; mean ± SD, triplicate
T1 construct: host or cells: CHO
T1 sequence (P13866 1-664): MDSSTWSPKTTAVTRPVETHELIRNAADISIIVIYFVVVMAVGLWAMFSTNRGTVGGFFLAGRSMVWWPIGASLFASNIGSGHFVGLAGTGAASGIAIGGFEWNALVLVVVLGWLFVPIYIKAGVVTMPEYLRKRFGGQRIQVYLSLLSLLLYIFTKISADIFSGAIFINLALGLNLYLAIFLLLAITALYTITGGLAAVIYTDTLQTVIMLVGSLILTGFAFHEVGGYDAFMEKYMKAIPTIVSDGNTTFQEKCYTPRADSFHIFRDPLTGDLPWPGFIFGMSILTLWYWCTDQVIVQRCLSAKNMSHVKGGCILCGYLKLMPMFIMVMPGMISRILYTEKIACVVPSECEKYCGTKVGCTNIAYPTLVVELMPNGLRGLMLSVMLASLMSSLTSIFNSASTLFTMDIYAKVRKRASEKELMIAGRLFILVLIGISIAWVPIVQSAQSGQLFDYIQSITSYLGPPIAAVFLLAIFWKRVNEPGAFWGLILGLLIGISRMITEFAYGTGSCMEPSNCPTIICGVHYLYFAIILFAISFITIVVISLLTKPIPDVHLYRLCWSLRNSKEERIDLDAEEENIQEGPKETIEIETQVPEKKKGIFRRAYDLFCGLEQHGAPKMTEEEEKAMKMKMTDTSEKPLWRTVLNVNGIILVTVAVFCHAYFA
Description: CHO cells overexpressing SGLT1 and SGLT2 cells (CHO-SGLT1 and -SGLT2) and CHO-mock cells were characterized as previously described. Cells were maintained in RPMI1640 medium supplemented with 10% fetal bovine serum and 200 µg/mL G418 at 37 °C in 5% CO2 conditions. CHO-SGLT1 and -SGLT2 cells were seeded at a density of 1 × 10^5 cells/well in 96-well plates. After 24 h, the growth medium was discarded from the cells, and the cells were washed with pre-warmed Na^+-free buffer (10 mM HEPES, 5 mM Tris, 140 mM choline chloride, 2 mM KCl, 1 mM CaCl2, 1 mM MgCl2, pH7.4) and incubated for 1 h in Na^+-free buffer. After replacing Na^+-free buffer with Na^+ gradient buffer (10 mM HEPES, 5 mM Tris, 140 mM NaCl, 2 mM KCl, 1 mM CaCl2, 1 mM MgCl2, pH7.4) containing 10 µM [^14C]AMG, the uptake of [^14C]AMG into the CHO-mock cells and CHO-SGLT1 and -SLGT2 cells was measured for 0.5, 1, 1.5, 2, and 3 h. After a predetermined incubation time, cells were washed three times with 200 µL of ice-cold Na^+-free buffer immediately after placing the plates on ice. Then, the cells were lysed with 10% SDS, and the cell lysates were mixed with Optiphase cocktail solution. Thereafter, the radioactivity of the cell lysates was measured using a liquid scintillation counter.
After 2 h, cells were washed three times with 200 µL of ice-cold Na^+-free buffer and the cells were lysed with 10% SDS (40 µL), followed by adding Optiphase cocktail solution (200 µL). The radioactivity of the cell lysates was measured using a liquid scintillation counter. The SGLT1 or SGLT2-mediated uptake of [^14C]AMG was calculated by the subtraction of the uptake rates of [^14C]AMG into the mock cells from those of the CHO-SGLT1 and -SLGT2 cells. In the inhibition studies, the percentages of the transport rate of AMG with or without SGLT2 inhibitors were calculated and the data were fitted to an inhibitory effect model. The IC50 (the concentration of the inhibitor to show half-maximal inhibition) values were calculated using Sigma Plot ver.10.0 (Systat Software, Inc.; San Jose, CA, USA).

OAT3 = system: T2, OAT3; assay: Substrate specificity / uptake in HEK293-OAT3 cells; assay type: in vitro ADME; conditions: for Substrate for OAT3: HEK293-OAT3 vs mock, ± 20 μM probenecid
T2 construct: host or cells: HEK293
Description: HEK293-mock cells and HEK293 cells overexpressing OAT1 and OAT3 transporters (HEK293-OAT1 and -OAT3, respectively) were seeded in poly-D-lysine-coated 24-well plates at a density of 4 × 10^5 cells/well and cultured for 24 h in DMEM supplemented with 10% FBS and 5 mM non-essential amino acids at 37 °C in 8% CO2 condition.
For each experiment, the growth medium was discarded after 24 h, and the attached cells were washed with pre-warmed HBSS and incubated with pre-warmed HBSS for 20 min at 37 °C. To confirm the functionality of OAT1 and OAT3, we measured the uptake of 0.1 µM [^3H]PAH and 0.1 µM [^3H]ES, representative substrates for OAT1 and OAT3, respectively, into in the HEK293-mock cells and HEK293-OAT1 and -OAT3 cells, respectively, for 5 min in the presence and absence of 20 µM probenecid, a typical inhibitor for both OAT1 and OAT3 [8, 9]. The cells were then washed three times with 500 μL of ice-cold HBSS immediately after placing the plates on ice. Subsequently, cells were lysed with 10% sodium dodecyl sulfate and mixed with Optiphase cocktail solution overnight. The radioactivity of the cell lysate was measured using a liquid scintillation counter (Microbeta 2; Perkin Elmer Inc., Boston, MA, USA).
For the concentration dependency in the uptake of DWP16001, the uptake of DWP16001 in a concentration range of 0.5–50 μM dissolved in HBSS was measured for 5 min at 37 °C in the mock cells and HEK293-OAT1 and -OAT3 cells, respectively. After 5 min, the cells were washed three times with 500 μL of ice-cold HBSS immediately after placing the plates on ice.
In the concentration-dependent uptake studies, the transporter-mediated uptake of DWP16001 was calculated by the subtraction of the transport rates of DWP16001 into the mock cells from those of the HEK293-OAT1 and -OAT3 cells. Kinetic parameters for the OAT1- and OAT3-mediated transport of DWP16001 were determined using the Michaelis-Menten equation [V = Vmax⋅S/(Km + S)] [10].

[1] = HEK293-OAT3 minus mock, 0.5–50 μM, 5 min

| Structure (SMILES) | IC50 (SGLT1) [nM] | Increase of uptake in HEK293-OAT3 cells compared with mock cells (OAT3; 2 μM, 5 min) | Substrate for OAT3 (OAT3; 2 μM, 5 min) | OAT3-mediated uptake: CLint (OAT3; [1]) [µL/min] | OAT3-mediated uptake: Vmax (OAT3; [1]) [pmol/min] | Km at 5 min (OAT3; human, HEK293-OAT3 minus mock, 0.5–50 μM, read-out: OAT3-mediated uptake: Km) [µM] |
| --- | --- | --- | --- | --- | --- | --- |
| OC[C@H]1O[C@@H](c2cc(Cc3ccc(C4CC4)cc3)c(Cl)c3c2CCO3)[C@H](O)[C@@H](O)[C@@H]1O [DWP16001] | 549 ± 140 | two-fold | a substrate | 8.6 | 267.9 | 31.1 |
| OC[C@H]1O[C@@H](c2ccc(F)c(Cc3cc4ccccc4s3)c2)[C@H](O)[C@@H](O)[C@@H]1O [Ipragliflozin, ipragliflozin] | 2330 ± 378 | – | not substrates | – | – | – |
